{"source": "patent US10849875B2", "about": "“Cancer specific lipid targeted peptidomimetics” (University of Houston System, priority 2015, dated 2020)", "key": {"HCC4017 cells": {"tested_on": "HCC4017 cells", "experiment": "FACS binding assay", "set-up": "species or system human", "protocol": "FACS binding assays were conducted to further quantify the binding event of the PPS1 monomer and PPS1D1 dimer."}, "MTD studies of PPS1D1": {"experiment": "MTD studies of PPS1D1", "set-up": "species or system mice", "details": "mouse, in vivo", "protocol": "[…] (MTD) studies were performed by injecting PPS1D1 into mice. […] In vivo localization studies were performed with biotinylated versions of PPS1D1 and PC462D1. Animals were injected intravenously with 100 μL of biotinylated PPS1D1 or PC462D1 (500 μg/mL) and sacrificed at 1 and 4 h post injection. Tissue was collected, snap frozen, and sectioned and the presence of the PPS1D1 and PC462D1 determined by streptavidin-Cy3."}, "HBEC30KT cells [1]": {"tested_on": "HBEC30KT cells", "experiment": "MTS cell viability assay", "assay_type": "cell-based, human", "protocol": "After confirming the binding and specificity of the PPS1 on HCC4017 lung cancer cells, whether this compound has any biological effects on HCC4017 lung cancer cells was assayed. The gold standard cell viability (MTS) assay was used. HCC4017 cells and HBEC30kt and HBEC3kt cells were grown in 96 well plates on day 1, then treated by serial dilution of PPS1 and control compound C462 on day 2, and the viable cell count was measured using MTS reagent on day 3. […] On one of the repetitive experiments of this assay, Cystinylated-PPS1 compound was included (FIG. 6A). This was the intermediate compound used to attach the FITC-malemide for binding assays described previously. […] The only difference between this Cystinylated-PPS1 and the original PPS1 compound was just a single cysteine amino acid at the C-terminal. […]\nA homo-dimeric version of PPS1 was synthesized. […] The resulting dimeric version of the PPS1 compound, PPS1D1 (FIG. 6C), and the analogous dimeric versions of scrambled PC2, PC2D1 (FIG. 6E), and control compound C462, PC462D1 (FIG. 82), were then evaluated for activity. […] As described above, HCC4017 cells and HBEC30kt and HBEC3kt cells were grown in 96 well plates on day 1, treated serial dilutions of PPS1, PPS1D1, C462 and C462D1 on day 2, and viable cell count was measured using MTS reagent on day 3. […]"}, "HBEC30KT cells [2]": {"tested_on": "HBEC30KT cells", "experiment": "Cell staining with Hoechst 33342 and propidium iodide (membrane integrity)", "assay_type": "cell-based, human", "details": "20 μM", "protocol": "(§1) It was evaluated how PPS1D1 affects viability of these PS expressing cancer cell lines. While there are difficulties of narrowing down the exact mechanism of action of a compound targeting cell membrane lipids, whether PPS1D1 has any effect on cell membrane integrity was evaluated. Cells were treated with standard DNA staining dyes Propidium iodide (PI) and Hoechst 33342. While both bind DNA, only Hoechst is cell permeable. Therefore, when treating live cells only Hoechst will stain the nucleus while PI will stain the nucleus only if the cell membrane integrity is compromised. All the lung cancer cell lines and normal HBEC30KT cells were treated with these dyes in the presence of PPS1D1 (at 1 μM and 20 μM) or a control compound PC462D1 at 20 μM and evaluated fluorescence by microscopy without fixation. […] These observations indicate that 20 μM PPS1D1 is selectively cytotoxic to PS-positive lung cancer cells.\n(§2) 10,000 cells of HCC4017, H460, HCC95, H1693,H1395 and HBEC30KT were plated on chamber slides (Lab-Tek, Thermo Fisher, MA). On second day, cells were treated with PPS (1 μM and 20 μM), control PC462D1 (20 μM) and 0.005% Benzalkonium chloride (BAC) in RPMI medium with 10% FBS containing 3% BSA (KSFM media with 3% BSA for HBEC30KT). Chamber slides were washed with PBS three times. Cells were then stained with Hoechst 33342 (10 μg/ml) for 30 min in dark. Chamber slides were washed with 3× PBS. Cells were then stained with propidium iodide (1 mg/ml) for 15 mins. Cells were washed with 3× PBS and imaged using Fluorescence Microscope (Olympus BX-53)."}, "[3]": {"tested_on": "HCC4017, H460, HCC95, H1693, H1395 lung cancer cell lines", "experiment": "Cell staining with Hoechst 33342 and propidium iodide (membrane integrity)", "assay_type": "cell-based, human", "protocol": "as §1, §2"}}, "note": "“Also recorded” adds a separate entry of the source. Positions of bridges follow the written chain, without caps; N, C: chain ends. Non-standard residues stand in square brackets, D forms with d. Residues, ends and D or L forms follow the SMILES beside them. Chains are numbered I, II in the order given. Gly(N-piperonyl) = O=C(O)CNCc1ccc2c(c1)OCO2; N(4-MeOBn)Gly = COc1ccc(CNCC(=O)O)cc1; Nrpe = C[C@@H](NCC(=O)O)c1ccccc1; Nlys = NCCCCNCC(=O)O"}
{"compound": "COc1ccc(CN(CC(=O)N(CCCCN)CC(=O)N[C@@H](CCCCN)C(=O)N[C@H](CCCCN)C(=O)N[C@@H](CCSC)C(=O)NCCCC[C@H](NC(=O)[C@H](CCSC)NC(=O)[C@@H](CCCCN)NC(=O)[C@H](CCCCN)NC(=O)CN(CCCCN)C(=O)CN(Cc2ccc(OC)cc2)C(=O)CN(C(=O)CN(Cc2ccc3c(c2)OCO3)C(=O)CN[C@H](C)c2ccccc2)[C@H](C)c2ccccc2)C(N)=O)C(=O)CN(C(=O)CN(Cc2ccc3c(c2)OCO3)C(=O)CN[C@H](C)c2ccccc2)[C@H](C)c2ccccc2)cc1", "note": "[PPS1D1] (I: H-[Nrpe][Gly(N-piperonyl)][Nrpe][N(4-MeOBn)Gly][Nlys]K[dK]MK-NH2 / II: H-[Nrpe][Gly(N-piperonyl)][Nrpe][N(4-MeOBn)Gly][Nlys]K[dK]M; amide I:9-II:C; N-terminus assumed)", "values": [{"measurement": "effect on H460 cells", "setting": "H460 cells; MTS / cell proliferation, increasing concentrations", "value": "very potent in inhibiting growth"}, {"measurement": "concentration at which most cytotoxicity was seen", "setting": "H460 cells; cell proliferation assay, H460", "value": "≥ 10", "unit": "µM"}, {"measurement": "improvement of binding of dimeric version over PPS1", "setting": "HCC4017 cells", "value": "about 175 fold"}, {"measurement": "Kd", "setting": "HCC4017 cells; FACS", "value": 80, "unit": "nM"}, {"measurement": "MTD", "setting": "MTD studies of PPS1D1; mice bearing subcutaneous HCC4017 xenografts", "value": 1, "unit": "mg/kg"}, {"measurement": "MTD", "setting": "MTD studies of PPS1D1; nontumor bearing animals", "value": 5, "unit": "mg/kg"}, {"measurement": "effect on normal HBEC30KT cells", "setting": "HBEC30KT cells [1]; 1 and 20 μM", "value": "no effect"}, {"measurement": "activity on normal HBEC30KT cells", "setting": "HBEC30KT cells [1]; serial dilutions", "value": "did not have any activity; also recorded: no cytotoxicity"}, {"measurement": "PI staining of normal HBEC30KT cells", "setting": "HBEC30KT cells [2]", "value": "not observed"}, {"measurement": "PI / Hoechst staining of lung cancer cells", "setting": "[3]; 1 μM", "value": "only show staining with Hoechst dye"}, {"measurement": "PI / Hoechst staining of lung cancer cells", "setting": "[3]; 20 μM", "value": "staining of cells with PI"}]}
